# Source: US6015838A, “Aqueous film-forming foam compositions” (3M Innovative Properties Company, priority 1996, dated 2000)
# “Also recorded” adds a separate entry of the source.
# How the values were obtained:
# rats [1] = assay: Acute LD50, one-time feeding study of rats; assay type: in vivo, rat; details: one-time feeding, rats
# Method: Acute LD50 measurements for a one-time feeding study of rats were determined over a 21 day period for both the a-branched perfluorocarboxylate salt, C7 F15 CF(CF3)COO^- NH4^+, and its straight chain isomer, CF3 (CF2)8 COO^- NH4^+.
# [2] = Surface tension and critical micelle concentration (CMC) of aqueous surfactant solutions; assay type: physicochemical; details: Table 5; deionized water, at CMC
# Excerpt: Critical Micelle Concentration (CMC): The critical micelle concentration is defined as the concentration at which further surface tension is no longer lowered with increasing levels of surfactant. […] Surface tension is then plotted vs. log concentration and the data points are connected. The resulting curve has a nearly horizontal flat portion at concentrations above the CMC and has a negative steep slope at concentrations below the CMC. The CMC is defined as the lowest surfactant concentration in the horizontal flat portion of the curve.
# (§1) Then the critical micelle concentration (CMC) was determined for each surfactant.
# as §1
# [3] = Emulsion polymerization of hexafluoropropylene and vinylidene fluoride with surfactant as emulsifier; details: 3500 ppm emulsifier, 78° C.
# Excerpt: The following procedure was used to evaluate C7 F15 CF(CF3)COO^- NH4^+ (from Ex. M1) as an emulsifier to copolymerize hexafluoropropylene (HFP) and vinylidene fluoride.
# A 1 gallon, vertically agitated stainless steel reactor with pressure and temperature controls was evacuated and twice purged with nitrogen. Using an isolated vacuum, a solution comprised of 2 g of ammonium persulfate (initiator) and 6 g of dipotassium phosphate dissolved in 2800 g of deionized water was introduced into the reactor. The remaining vacuum on the reactor was vented with nitrogen, and the solution was degassed twice under agitation using alternate vacuum and nitrogen purges. […]
# The resulting latex polymer was drained from the reactor, and percent solids of the latex was determined to be 25% by weight as measured by drying 10 g of latex in a forced air oven for 16 hours at 105° C.
# The reactor body was separated from the reactor head, and a visual inspection of the reactor was made to determine the amount of coagulated polymer in the reactor (the amount should be minimal in a good polymerization reaction). A qualitative rating was assessed, ranging from "none" to "little" to "some." […]
# Particle size in the latex was determined using […] on a Coulter sub-micron particle size analyzer. […]
# rats [4] = assay: Monitoring of volatile degradation products exhaled by a dosed rat (uptake desiccator jar chamber); assay type: in vivo
# Method: Additional biological testing of C7F15 CF(CF3)COO^- NH4^+ in rats was conducted using the following test apparatus. An uptake desiccator jar chamber was designed with top and bottom portions, the top portion equipped with an inlet port, an outlet port, oxygen monitor and pressure gage. An oxygen gas tank supplied oxygen into the inlet port, and the oxygen level in the chamber was maintained at a normal ambient level as measured by the oxygen monitor and pressure gage. The outlet port was connected in series with a carbon dioxide scrubber and particulate filter, which in turn was connected to a loop containing a stainless steel bellows pump operating at about 2 L/min. Most of the gas in the loop was recycled into the inlet port, but about 100 mL/min was directed through a secondary loop to a gas chromatograph equipped with a 0.5 mL gas sampling loop.
# A rat dosed at 500 mg/kg was placed in the bottom portion of the chamber, the top portion was attached, and the assembled chamber was placed in an ice-filled pan to allow for the condensation of water. The oxygen flow was started, and the exhaust gases were monitored for the presence of CF3 CF=CF(C6 F13) and C7 F15 CFHCF3, aqueous degradation products of C7 F15 CF(CF3)COOH, using known standards of this olefin and hydride in the gas chromatograph. […] After 24 minutes, one slight chromatographic peak was noted, corresponding to the monohydride. After 92 minutes, the peak became noticeably larger and a second peak formed, corresponding to the olefin.
# [5] = Thermogravimetric analysis of neat perfluorocarboxylate salts; assay type: physicochemical; details: neat salt, 10° C./min, nitrogen
# Excerpt: Thermal degradation measurements were made on a series of neat perfluorocarboxylate salts, including several ax-branched open chain structures (Examples N2-N9), a primarily linear open chain structure (Example N10--Fluorad™ FC-143 Fluorochemical Surfactant, commercially available from 3M Company, St. Paul, Minn.), and a closed chain (i.e., cyclic) structure (Example N11--made by the electrochemical fluorination of benzoic acid and hydrolysis in the presence of KOH, as described in U.S. Pat. No. 2,567,011 (Diesslin et al.)).
# The perfluorocarboxylate salts were tested using a Perkin-Elmer TGA 7 thermogravimetric analysis apparatus and a salt sample size of approximately 5 mg, a heating rate of 10° C./min, and a nitrogen gas flow rate of 40-45 mL/min. Using the TGA 7 software, the following temperatures were recorded: (1) the onset temperature of decomposition, (2) the temperature at which 50% of the sample weight was lost, and (3) the temperature at which 90% of the sample weight was lost.
structure (smiles),measurement,setting,value
"O=C(O)C(F)(C(F)(F)F)C(F)(F)C(F)(F)C(F)(F)C(F)(F)C(F)(F)C(F)(F)C(F)(F)F (stereo not drawn) [Example M14, C7 F15 CF(CF3)COO^- H4 N^+]",time after which rats began regaining weight,rats [1],3 days
same,time of deaths from toxic doses,rats [1],2 to 3 days
same,wasting syndrome,rats [1],No wasting syndrome was noted
same,acute toxicity (in words),rats [1]; listed as C7 F15 CF(CF3)COO^- NH4^+,relatively low toxicity; also recorded: only slightly toxic
same,Surf. Tens. (surface tension at the CMC),[2],16.5 dynes/cm
same,Latex Stability,[3],0
same,post-exposure toxicity (death) or wasting syndrome,rats [4]; rat dosed at 500 mg/kg,no evidence of toxicity (death) or evidence of wasting syndrome
same,time at which monohydride peak was noted in exhaust gases,rats [4]; rat dosed at 500 mg/kg,24 min
same,time at which second peak (olefin) formed in exhaust gases,rats [4]; rat dosed at 500 mg/kg,92 min
same,monohydride and olefin peaks in exhaust gases after 217 minutes,"rats [4]; rat dosed at 500 mg/kg, 217 minutes",both peaks became significantly larger
same,"olefin or hydride in exhaust gases, initially","rats [4]; rat dosed at 500 mg/kg, initially",no olefin or hydride were detected
same,metabolism and elimination,"rats [4]; rat, in words",metabolized by the rat to volatile metabolites which were eliminated from the rat via transpiration
same,onset temperature of decomposition,[5],151 °C
same,temperature for 50% loss,[5],163 °C
same,temperature for 90% loss,[5],174 °C
